According to US5342604A (The Dow Chemical Company, priority 1992, dated 1994):
Counter-ions that a name gives are not always drawn. Like-named read-outs stand apart in the source and are kept apart here.

Tests used:
[1] = In vivo screening of bifunctional chelates: biodistribution, percent injected dose in liver; conditions: rat, i.v. tail vein, 2 hours
Procedure: (§2) Also samarium was injected as samarium chloride in unchelated form.
(§3) Sprague-Dawley rats weighing from 150 to 200 g were purchased from Charles River Laboratories. These animals were placed in cages and fed water and food ad libitum. The animals were acclimated for at least five days before use. Prior to injection of complex, the animals were placed under a heat lamp (15 to 30 minutes) to dilate the tail vein. Then, the animal was placed in a restraining cage, the tail cleaned with an alcohol swipe, and the animal injected (50 to 200 μl) via the tail vein. After injection, the animal was placed in another cage for two hours after which time the animal was sacrificed by cervical dislocation. The animal was then dissected, the parts rinsed with deionized H2 O, patted dry, and weighed into a tared counting vial. Whatever size of injection was made, at least three standards of the same material were prepared and counted with the animal parts.

[2] = Percent complex determination, samarium complexes (Sephadex C-25 cation exchange); type: physicochemical
Procedure: (§1) A disposable 10 ml plastic (Biorad) column was filled with 1 to 2 ml of water-swelled Sephadex™ C-25 cation exchange resin. The water was pressure eluted to the top of the resin. Fifteen μl of the complex (or more if counts were low) were added to the top of the resin. This was followed by 2 ml of 4:1 (V:V) isotonic saline:conc. ammonium hydroxide solution as an eluent which was allowed to drip into a counting tube. This was also pressure eluted to the top of the resin. An additional 2 ml of the eluent were added and the column pressure eluted to remove all liquid. The dried resin was then placed in a third counting tube and the three tubes counted on a NaI well counter using a Canberra multichannel analyzer linked to a computer. The percent complex was determined by dividing the number of counts in the two elutions by the total counts in the elutions plus the column, all times 100.
Samarium complexes were formed as described previously for yttrium complexes except that 0.0003M samarium was prepared by dissolution of Sm2 03 (348.7 g mole) in 0.1M hydrochloric acid. […] Percent complex determination was made in the same manner as for the yttrium complex.

[3] = Inertness of samarium complex to pH change; type: physicochemical
Procedure: as §1, with “100. By this method, uncomplexed yttrium was retained on the column.” for “100.”
One portion was treated with 1-2 μl portions of 0.1N hydrochloric acid until the pH was lowered and the other portion was treated with 0.1N sodium hydroxide to bring the pH up. The complexes were allowed to set for 5-10 minutes at each pH change, then they were sampled to determine the percent complexation at that pH by the method described for Examples 16 through 33.
One portion was treated with 1-2 μportions of 1.0N hydrochloric acid until the pH was lowered and the other portion was treated with 0.1N, 1.0N and 50 weight % sodium hydroxide to bring the pH up. The complexes were allowed to set for about 5 minutes at each pH change, then they were sampled to determine the percent complexation at that pH by the method described for Examples 16 through 33.

[4] = Percent complex determination, yttrium complexes (Sephadex C-25 cation exchange); type: physicochemical; conditions: Y
Procedure: The yttrium and/or samarium complexes of several of the compounds were prepared and percent complexation determined as follows:
Complexes were made by preparing a 0.0003M yttrium solution in water. (YCl3 ·6H2 O, 303.26 g/mole; Y(OAc)3, 12.1% H2 0). Radioactive YCl3 (Oakridge National Laboratories) was added to give the desired number of counts. Ten μl of ligand solution (at 0.03M) were added to 990 μl of the Y solution, giving a ligand-to-metal ratio of 1:1. (Ten times the amount of ligand solution was used for a 10:1 ligand to metal ratio.) The pH was then adjusted to 7.4 using microliter quantities of hydrochloric acid or sodium hydroxide. The solution was then tested for the amount of complexed yttrium using the cation exchange method given below.
as §1, with “100. By this method, uncomplexed yttrium was retained on the column.” for “100.”

[5] = rat, in vivo, iv, 120 min
Procedure: as §2, §3

[6] = Sm, ligand/metal ratio about 50:1
[7] = Sm, ligand/metal ratio not stated

## 2-[(2-[(2-[(2-{[BIS(CARBOXYMETHYL)]AMINO}ETHYL) (CARBOXYMETHYL)AMINO]ETHYL) (CARBOXYMETHYL)AMINO]ETHYL)(CARBOXYMETHYL)AMINO]-2-[5-ACETAMIDO2-(CARBOXYMETHYLOXY) PHENYL]ETHANOIC ACID AND 2[(2-[(2-{[BIS(CARBOXYMETHYL)]AMINO}ETHYL)(CARBOXYMETHYL) AMINO]ETHYL)(2-{[BIS(CARBOXYMETHYL)]AMINO}ETHYL)AMINO]-2-[5-ACETAMIDO-2-(CARBOXYMETHYLOXY) PHENYL]ETHANOIC ACID [Example 9]
[1]; Sm, ligand/metal 10:1
  % Injected Dose in Liver: 2.8%
[2]; Sm, ligand/metal 10:1
  % Complex: > 99%

## 2-[BIS(2-{[(BIS(CARBOXYMETHYL)] AMINO}ETHYL)AMINO]-2-[5-AMINO-2-(CARBOXYMETHYLOXY) PHENYL]ETHANOIC ACID AND 2-[{2-[(2{[BIS(CARBOXYMETHYL)]AMINO}ETHYL) (CARBOXYMETHYL)AMINO]ETHYL}(CARBOXYMETHYL)AMINO]-2-[5-AMINO-2-(CARBOXYMETHYLOXY)PHENYL]ETHANOIC ACID, SAMARIUM COMPLEX [XXII]
[3]; Table V, pH 1, 5-10 minutes
  % Complexed: 98%
[3]; Table V, pH 2, 5-10 minutes
  % Complexed: 100%
[3]; Table V, pH 3, 5-10 minutes
  % Complexed: 100%
[3]; Table V, pH 4, 5-10 minutes
  % Complexed: 100%
[3]; Table V, pH 5, 5-10 minutes
  % Complexed: 100%
[3]; Table V, pH 7, 5-10 minutes
  % Complexed: 100%
[3]; Table V, pH 9, 5-10 minutes
  % Complexed: 100%
[3]; Table V, pH 11, 5-10 minutes
  % Complexed: 100%
[3]; Table V, pH 13, 5-10 minutes
  % Complexed: 100%
[2]; about pH 7.5, Example XXII
  percent Sm that was complexed: 100%

## 2-[BIS(2-{[(BIS(CARBOXYMETHYL)]AMINO}ETHYL) AMINO]-2-[5-AMINO-2-(CARBOXYMETHYLOXY)PHENYL]ETHANOIC ACID AND 2-[{2-[(2-{[BIS(CARBOXYMETHYL)]AMINO}ETHYL)(CARBOXYMETHYL)AMINO]ETHYL} (CARBOXYMETHYL)AMINO]-2-[5-AMINO-2-(CARBOXYMETHYLOXY)PHENYL]ETHANOIC ACID [Example 7]
[2]; [6]
  % Complex: 96%

## 2-[bis(2-{[(bis(carboxymethyl)]amino}ethyl) amino]-2-[5-acetamido-2-(carboxymethyloxy)phenyl]ethanoic acid and 2-[{2-[(2-{[bis(carboxymethyl)]amino}ethyl)(carboxymethyl)amino]ethyl} (carboxymethyl)amino]-2-[5-acetamido-2-(carboxymethyloxy)phenyl]ethanoic acid [Example 6]
[1]; Sm, ligand/metal 10:1
  % Injected Dose in Liver: 0.38%
[2]; Sm, ligand/metal 10:1
  % Complex: > 99%

## 2-[{2-[(2{[B IS(CARBOXYMETHYL)]AMINO}ETHYL) (CARBOXYMETHYL) AMINO]ETHYL} (CARBOXYMETHYL) AMINO]-2-[5-AMINO-2-(CARBOXYMETHYLOXY)PHENYL]ETHANOIC ACID, SAMARIUM COMPLEX [XXIII]
[3]; Table VI, pH 1, about 5 minutes
  % Complexed: 91%
[3]; Table VI, pH 2, about 5 minutes
  % Complexed: 88%
[3]; Table VI, pH 3, about 5 minutes
  % Complexed: 92%
[3]; Table VI, pH 5, about 5 minutes
  % Complexed: 96%
[3]; Table VI, pH 7, about 5 minutes
  % Complexed: 96%
[3]; Table VI, pH 9, about 5 minutes
  % Complexed: 99%
[3]; Table VI, pH 12, about 5 minutes
  % Complexed: 98%
[3]; Table VI, pH 13, about 5 minutes
  % Complexed: 99%
[2]; Sm, pH about 7, Example XXIII
  percent complexation: 96%

## Nc1ccc(OCC(=O)O)c(C(C(=O)O)N(CCN(CC(=O)O)CC(=O)O)CC(=O)O)c1 (centres unmarked) [Example 3, 2-[(2-{[BIS(CARBOXYMETHYL)]AMINO}ETHYL) (CARBOXYMETHYL)AMINO]-2-[5-AMINO-2-(CARBOXYMETHYLOXY)PHENYL]ETHANOIC ACID, PENTA SODIUM SALT]
[4]; ligand/metal 10:1
  % Complex: > 99%
[5]
  % Injected Dose in Liver: 0.22%

## CC(=O)Nc1ccc(O)c(C(C(=O)O)N(CC#N)CCN(CC(=O)O)CC(=O)O)c1 (centres unmarked) [Example 4, 2-[(2-{[bis(carboxymethyl)]amino}ethyl) (cyanomethyl)amino]-2-(5-acetamido-2-hydroxyphenyl)ethanoic acid]
[4]; ligand/metal 10:1
  % Complex: > 99%
[5]
  % Injected Dose in Liver: 1.4%

## Nc1ccc(O)c(C(C(=O)O)N(CCN(CC(=O)O)CC(=O)O)CC(=O)O)c1 (centres unmarked) [Example 5, 2-[(2-{[BIS(CARBOXYMETHYL)]-AMINO}ETHYL) (CARBOXYMETHYL)AMINO]-2-(5-AMINO-2HYDROXYPHENYL)ETHANOIC ACID]
[4]; ligand/metal 10:1
  % Complex: 99%
[5]
  % Injected Dose in Liver: 0.38%

## Nc1ccc(OCC(=O)O)c(C(C(=O)O)N(CCN(CCN(CC(=O)O)CC(=O)O)CC(=O)O)CC(=O)O)c1 (centres unmarked) [Example 8, 2-[{2-[(2-{[BIS(CARBOXYMETHYL)]-AMINO}ETHYL) (CARBOXYMETHYL) AMINO]ETHYL}(CARBOXYMETHYL)AMINO ]-2-[5-AMINO-2- CARBOXYMETHYLOXY)PHENYL]ETHANOIC ACID]
[2]; [6]
  % Complex: > 99%

## CC(=O)Nc1cc(CN(CCN(CC(=O)O)CC(=O)O)CC(=O)O)c(O)c(CN(CCN(CC(=O)O)CC(=O)O)CC(=O)O)c1 [Example 11]
[4]; ligand/metal 10:1
  % Complex: 99%
[4]; ligand/metal ratio about 1:1
  % Complex: 98%

## CC(=O)Nc1cc(CN(CCN(CC(=O)O)CC(=O)O)CC(=O)O)c(O)c(CN(CC(=O)O)CC(=O)O)c1 [Example 15, 2-({[BIS(CARBOXYMETHYL)]AMINO}METHYL)-6-{[({[BIS(CARBOXYMETHYL)]AMINO}ETHYL)((CARBOXYMETHYL)AMINO]METHYL}-4-(ACETAMIDO)PHENOL]
[4]; ligand/metal 10:1
  % Complex: 99%
[5]
  % Injected Dose in Liver: 0.37%

## CC(=O)Nc1ccc(O)c(CN(CCN(CC(=O)O)Cc2cc(NC(C)=O)ccc2O)CC(=O)O)c1 [Example U, N,N'-DI(2-HYDROXY, 5-ACETAMIDOBENZYL)ETHYLENEDIAMINE-N,N'-DIACETIC ACID, reference compound]
[1]; [7]
  % Injected Dose in Liver: 12%

## Nc1ccc(O)c(C(NCCNC(C(=O)O)c2cc(N)ccc2O)C(=O)O)c1 (centres unmarked) [Example X, […][(2-HYDROXY-5AMINOPHENYL)ACETIC ACID], reference compound]
[1]; [7]
  % Injected Dose in Liver: 24%

## [Cl][Sm]([Cl])[Cl] [SmCl3, samarium chloride, reference compound]
[1]; Sm injected as samarium chloride in unchelated form
  % Injected Dose in Liver: 39%
